Laboratory results published in publication PMC10041525, “New Dual Inhibitors of Bacterial Topoisomerases with Broad-Spectrum Antibacterial Activity and In Vivo Efficacy against Vancomycin-Intermediate Staphylococcus aureus” (Journal of Medicinal Chemistry, 2023).
Where two headings read alike, the source gives them in different places.

How the values were obtained:
[1] = molecular target: T1, DNA gyrase from E. coli (Escherichia coli, UniProt P0AES6); assay: supercoiling HTS plate assay; format: biochemical; details: IC50 [nM] E. coli DNA gyrase
T1 construct: purchased Inspiralis
Experimental: (§1) All compounds were tested for their inhibitory activities against DNA gyrase and topo IV from E. coli in supercoiling and relaxation high-throughput plate assays, respectively. Our new series of inhibitors were then tested against a panel of Gram-positive and Gram-negative bacteria.
(§2) Seven concentrations of the inhibitors were used to determine IC50 values which were then calculated with GraphPad Prism 6.0 software. Three independent measurements were performed to determine IC50 values, and mean values are reported as the final result.

[2] = molecular target: T2, topo IV from E. coli (Escherichia coli, UniProt P20083); assay: relaxation HTS plate assay; format: biochemical
T2 construct: purchased Inspiralis
T2 sequence (P0AFI2 whole entry): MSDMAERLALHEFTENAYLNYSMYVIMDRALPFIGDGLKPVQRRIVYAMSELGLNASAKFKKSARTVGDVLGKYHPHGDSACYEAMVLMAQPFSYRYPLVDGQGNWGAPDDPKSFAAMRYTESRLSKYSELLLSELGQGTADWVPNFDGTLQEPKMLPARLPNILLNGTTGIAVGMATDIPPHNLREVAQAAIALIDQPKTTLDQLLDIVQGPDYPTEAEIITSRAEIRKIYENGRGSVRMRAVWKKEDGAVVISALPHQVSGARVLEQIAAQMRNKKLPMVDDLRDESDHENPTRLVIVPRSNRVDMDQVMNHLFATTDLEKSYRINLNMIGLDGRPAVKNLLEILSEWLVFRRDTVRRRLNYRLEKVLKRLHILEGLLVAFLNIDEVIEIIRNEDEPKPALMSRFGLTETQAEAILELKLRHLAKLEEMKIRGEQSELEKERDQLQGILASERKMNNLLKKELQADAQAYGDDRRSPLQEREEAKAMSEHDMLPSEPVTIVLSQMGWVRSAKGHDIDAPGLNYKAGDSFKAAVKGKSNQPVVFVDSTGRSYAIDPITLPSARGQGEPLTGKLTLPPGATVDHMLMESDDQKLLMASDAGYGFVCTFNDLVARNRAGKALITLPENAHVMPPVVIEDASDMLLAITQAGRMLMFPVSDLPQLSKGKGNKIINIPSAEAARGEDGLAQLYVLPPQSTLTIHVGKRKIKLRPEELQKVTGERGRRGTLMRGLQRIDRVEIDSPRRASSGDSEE
T2 sequence (P20083 whole entry): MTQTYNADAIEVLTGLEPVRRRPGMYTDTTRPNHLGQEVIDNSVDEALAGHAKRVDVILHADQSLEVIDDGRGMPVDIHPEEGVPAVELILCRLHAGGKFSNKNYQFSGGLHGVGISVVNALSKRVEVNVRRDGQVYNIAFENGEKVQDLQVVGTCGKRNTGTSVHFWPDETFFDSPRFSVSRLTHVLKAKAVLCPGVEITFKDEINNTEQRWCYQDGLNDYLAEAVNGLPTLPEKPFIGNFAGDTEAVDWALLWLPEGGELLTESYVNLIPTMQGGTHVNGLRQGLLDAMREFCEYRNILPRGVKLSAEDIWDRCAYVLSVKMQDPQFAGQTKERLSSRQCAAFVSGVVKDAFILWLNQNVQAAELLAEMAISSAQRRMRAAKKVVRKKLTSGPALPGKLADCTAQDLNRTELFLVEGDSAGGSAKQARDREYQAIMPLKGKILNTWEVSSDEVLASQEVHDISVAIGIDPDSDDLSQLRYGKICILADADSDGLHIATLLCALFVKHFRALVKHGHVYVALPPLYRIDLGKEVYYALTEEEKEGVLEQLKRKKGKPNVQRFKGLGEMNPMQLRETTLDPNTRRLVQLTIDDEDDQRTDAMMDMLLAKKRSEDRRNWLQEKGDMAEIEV
Experimental: as §1, §2

[3] = system: S. aureus ATCC 29213; assay: MIC broth microdilution (CLSI); format: cell-based; details: Staphylococcus aureus, ATCC29213
Experimental: (§3) Cation-adjusted Mueller Hinton broth 2 (MHBII) was used for bacterial growth under standard laboratory conditions and for antimicrobial susceptibility tests. MHBII broth was prepared by dissolving 22 g of MHBII powder [containing beef extract (3 g), acid hydrolysate of casein (17.5 g), and starch (1.5 g); Becton Dickinson and Co.] in 1 L of water. To prepare MHBII agar, 14 g of agar (Bacto; Molar Chemicals) was added to 1 L of broth.
(§4) Bacterial strains were inoculated onto MHBII agar plates and grown overnight at 37 °C. Next, three individual colonies from each strain were inoculated into 1 mL of MHBII medium and propagated at 37 °C overnight, with agitation at 250 rpm. For Enterococcus sp., the cells were plated in brain–heart infusion [(BHI) medium] agar plates, and BHI broth was used to determine the MICs. […] Following the dilutions, each well was seeded with 5 × 10^4 bacterial cells (in 100 μL final volume). Each measurement was performed in three parallel replicates, and to avoid possible edge effects in the microwell plates, the outside rows (A, H) were filled with sterile medium. Following the inoculations, the plates were covered with the lids and wrapped in polyethylene plastic bags, to minimize evaporation but to allow O2 transfer. […] After incubation, the OD600 of each well was measured using a microplate reader (Synergy 2; Biotek).

[4] = system: Enterococcus faecalis ATCC 29212; assay: MIC broth microdilution (CLSI); format: cell-based, E. faecalis
Experimental: as §3, with “MICs (Tables 1 and S1–S3) were determined with a standard serial broth microdilution technique according to Clinical and Laboratory Standards Institute (CLSI) guidelines.[45] Cation-adjusted” for “Cation-adjusted”
(§5) Bacterial strains were inoculated onto MHBII agar plates and grown overnight at 37 °C. Next, three individual colonies from each strain were inoculated into 1 mL of MHBII medium and propagated at 37 °C overnight, with agitation at 250 rpm. For Enterococcus sp., the cells were plated in brain–heart infusion [(BHI) medium] agar plates, and BHI broth was used to determine the MICs. […] The highest final DMSO concentration in the experiments was 0.64% (in the case of the 64 μg/mL concentration of the inhibitor). Following the dilutions, each well was seeded with 5 × 10^4 bacterial cells (in 100 μL final volume). Each measurement was performed in three parallel replicates, and to avoid possible edge effects in the microwell plates, the outside rows (A, H) were filled with sterile medium. Following the inoculations, the plates were covered with the lids and wrapped in polyethylene plastic bags, to minimize evaporation but to allow O2 transfer. The plates were incubated at 37 °C under continuous shaking at 150 rpm for 18 h. After incubation, the OD600 of each well was measured using a microplate reader (Synergy 2; Biotek). The MICs were defined as the antibiotic concentrations which inhibited the growth of the bacterial cultures; that is, the drug concentration where the average OD600 increment of the three technical replicates was below 1.5-fold the background OD increment.

[5] = system: E. coli ATCC 25922; assay: MIC broth microdilution (CLSI); format: cell-based; details: Escherichia coli, ATCC25922
Experimental: as §3, with “MICs (Tables 1 and S1–S3) were determined with a standard serial broth microdilution technique according to Clinical and Laboratory Standards Institute (CLSI) guidelines.[45] Cation-adjusted” for “Cation-adjusted”
as §5

[6] = system: E. faecium ATCC 700221; assay: MIC broth microdilution (CLSI); format: cell-based; details: Enterococcus faecium, ATCC700221
Experimental: as §3, with “MICs (Tables 1 and S1–S3) were determined with a standard serial broth microdilution technique according to Clinical and Laboratory Standards Institute (CLSI) guidelines.[45] Cation-adjusted” for “Cation-adjusted”
as §5

[7] = system: S. aureus (MRSA) ATCC 43300; assay: MIC broth microdilution (CLSI); format: cell-based; details: Staphylococcus aureus
Experimental: as §3, with “MICs (Tables 1 and S1–S3) were determined with a standard serial broth microdilution technique according to Clinical and Laboratory Standards Institute (CLSI) guidelines.[45] Cation-adjusted” for “Cation-adjusted”
as §5

[8] = system: S. aureus (VISA) ATCC 700699; assay: MIC broth microdilution (CLSI); format: cell-based
Experimental: as §3, with “MICs (Tables 1 and S1–S3) were determined with a standard serial broth microdilution technique according to Clinical and Laboratory Standards Institute (CLSI) guidelines.[45] Cation-adjusted” for “Cation-adjusted”
as §5

[9] = system: A. baumannii ATCC 19606; assay: MIC broth microdilution (CLSI); format: cell-based; details: Acinetobacter baumannii, ATCC19606
Experimental: as §3, with “MICs (Tables 1 and S1–S3) were determined with a standard serial broth microdilution technique according to Clinical and Laboratory Standards Institute (CLSI) guidelines.[45] Cation-adjusted” for “Cation-adjusted”
as §5
(§6) cMIC, minimum inhibitory concentration
(§7) Bacterial strains that were used: S. aureus ATCC 29213, S. aureus (MRSA) ATCC 43300, S. aureus (VISA) ATCC 700699, E. faecalis ATCC 29212, E. faecium ATCC 700221,
(§8) E. coli ATCC 25922, P. aeruginosa ATCC 27853 (PAO1 for compounds 7l, 8b, 14), A. baumannii ATCC 17978 (ATCC 19606 for compounds 7l, 8b, 14), K. pneumoniae ATCC
(§9) Measurements were performed according to the Clinical and Laboratory Standards Institute guidelines, with three independent measurements.

[10] = system: K. pneumoniae ATCC 13883; assay: MIC broth microdilution (CLSI); format: cell-based; details: Klebsiella pneumoniae, ATCC13883; ATCC 13883 used for 7l, 8b, 14, 16b, 16c
Experimental: as §3, with “MICs (Tables 1 and S1–S3) were determined with a standard serial broth microdilution technique according to Clinical and Laboratory Standards Institute (CLSI) guidelines.[45] Cation-adjusted” for “Cation-adjusted”
as §5, §6, §7, §8, §9

[11] = system: P. aeruginosa PAO1; assay: MIC broth microdilution (CLSI); format: cell-based; details: Pseudomonas aeruginosa; PAO1 used for 7l, 8b, 14, 16b, 16c
Experimental: as §3, with “MICs (Tables 1 and S1–S3) were determined with a standard serial broth microdilution technique according to Clinical and Laboratory Standards Institute (CLSI) guidelines.[45] Cation-adjusted” for “Cation-adjusted”
as §5, §6, §7, §8, §9

[12] = system: A. baumannii ATCC 17978; assay: MIC broth microdilution (CLSI); format: cell-based; details: Acinetobacter baumannii, ATCC17978
Experimental: as §3, §4

[13] = system: Enterobacter cloacae spp. cloacae ATCC 13047; assay: MIC broth microdilution (CLSI); format: cell-based
Experimental: as §3, with “MICs (Tables 1 and S1–S3) were determined with a standard serial broth microdilution technique according to Clinical and Laboratory Standards Institute (CLSI) guidelines.[45] Cation-adjusted” for “Cation-adjusted”
as §5

[14] = system: K. pneumoniae ATCC 10031; assay: MIC broth microdilution (CLSI); format: cell-based; details: Klebsiella pneumoniae, ATCC10031
Experimental: as §3, with “MICs (Tables 1 and S1–S3) were determined with a standard serial broth microdilution technique according to Clinical and Laboratory Standards Institute (CLSI) guidelines.[45] Cation-adjusted” for “Cation-adjusted”
as §5

[15] = system: P. aeruginosa ATCC 27853; assay: MIC broth microdilution (CLSI); format: cell-based; details: Pseudomonas aeruginosa, ATCC27853
Experimental: as §3, with “MICs (Tables 1 and S1–S3) were determined with a standard serial broth microdilution technique according to Clinical and Laboratory Standards Institute (CLSI) guidelines.[45] Cation-adjusted” for “Cation-adjusted”
as §5

[16] = in vitro; format: in vitro ADME, mouse; details: male, CD-1, mouse; for fraction unbound at 4 h, 5 μM: plasma (pooled)
Experimental: The PPB studies were performed by Selvita d.o.o. (Zagreb, Croatia) in mouse plasma (CD-1 male, pooled, commercially obtained from BioIVT) via equilibrium dialysis. Compounds were assayed at 5 μM (0.5% DMSO) in two replicates, and incubation time was 4 h at 37 °C. Samples were taken at 0 min and 4 h. Aliquots from both buffer and plasma compartment matrix were matched and mixed with 6 volumes of STOP solution (acetonitrile/methanol (2:1) + internal standard – diclofenac) and analyzed by LC–MS/MS. Assay controls were caffeine (low), verapamil (moderate binding), and nicardipine (very high binding), and protein contamination was checked.

[17] = mitochondrial toxicity glu/gal assay; format: cell-based; details: human, 0.1 µM, read-out: cell viability (ATP), % of control
Experimental: HepG2 cells were seeded in two 96-well plates at a density of 50,000 cells per well in 100 μL of growth medium. For the first plate, the growth medium contained glucose and for the second plate, it contained galactose. Cells were incubated overnight in a 5% CO2 atmosphere at 37 °C and allowed to attach onto the wells. […] The medium contained positive control (Rotenone). […] Luminescence was measured with Tecan Infinite 200 pro luminometer, and the values from each well treated with compound were compared to the values given by the negative control (medium only). The inhibition of mitochondrial function was determined by comparing ATP levels in galactose and glucose exposed cells. […]

[18] = read-out: MIC [µg/mL](S. aureus ATCC 29213)
[19] = ATCC 19606 used for 7l, 8b, 14, 16b, 16c, read-out: MIC
[20] = read-out: MIC [µg/mL] (A. baumannii ATCC 19606 for compounds 7l, 8b, 14)

Compound	IC50 [1] [nM]	IC50 ([2]; IC50 [nM] E. coli TopoIV) [nM]	MIC ([3]; read-out: MIC) [µg/mL]	MIC [3, 18] [µg/mL]	MIC ([5]; read-out: MIC) [µg/mL]	MIC [9, 19] [µg/mL]	MIC [9, 20] [µg/mL]	MIC [10] [µg/mL]	MIC [11] [µg/mL]	other results
Cc1[nH]c(C(=O)Nc2nc3c(N4CC[C@H](N(C)C)C4)cc(C(=O)O)cc3s2)c(Cl)c1Cl.Cl.N [7l, (S)-2-(3,4-Dichloro-5-methyl-1H-pyrrole-2-carboxamido)-4-(3-(dimethylamino)pyrrolidin-1-yl)benzo[d]thiazole-6-carboxylic Acid]	< 10	210 ± 80	4	4	> 64	> 64	> 64	> 64	> 64	MIC ([4]; Enterococcus faecalis, ATCC29212, read-out: MIC): 1 µg/mL; MIC ([6]; read-out: MIC): 0.25 µg/mL; MIC ([7]; read-out: MIC): 2 µg/mL; MIC ([7]; read-out: MIC [µg/mL](S. aureus MRSA ATCC4330)): 2 µg/mL; MIC ([8]; Staphylococcus aureus, read-out: MIC): 0.5 µg/mL
Cc1[nH]c(C(=O)Nc2nc3c(N4CCNCC4)cc(C(=O)O)cc3s2)c(Cl)c1Cl.Cl [8b, 4-(6-Carboxy-2-(3,4-dichloro-5-methyl-1H-pyrrole-2-carboxamido)benzo[d]thiazol-4-yl)piperazin-1-ium Chloride]	< 10	120 ± 15	32	32	16	64	64	64	> 64	
Cc1[nH]c(C(=O)Nc2nc3c(N4CCOCC4)cc(C(=O)O)cc3s2)cc1C#N [16c, 2-(4-Cyano-5-methyl-1H-pyrrole-2-carboxamido)-4-morpholinobenzo[d]thiazole-6-carboxylic Acid]	32 ± 9		> 64	> 64	> 64	> 64		> 64	> 64	IC50 ([2]; read-out: IC50): 440 nM; MIC ([12]; read-out: MIC [µg/mL] (A. baumannii ATCC 17978)): > 64 µg/mL
Cc1[nH]c(C(=O)Nc2nc3c(OCc4ccccc4)cc(C(=O)O)cc3s2)c(Cl)c1Cl [E]										MIC [12]: 2 µg/mL; MIC [3]: 0.5 µg/mL; MIC [4]: <0.03125 µg/mL; MIC ([4]; Enterococcus faecalis, ATCC29212): < 0.0312 µg/mL; MIC [5]: 16 µg/mL; MIC [6]: 0.0625 µg/mL; MIC [13]: >64 µg/mL; MIC ([13]; Enterobacter cloacae, ATCC13047): > 64 µg/mL; MIC [14]: 4 µg/mL; MIC [15]: 2 µg/mL; MIC [7]: 0.0625 µg/mL; MIC [8]: <0.03125 µg/mL; MIC ([8]; Staphylococcus aureus): < 0.0312 µg/mL; fraction unbound at 4 h, 5 μM ([16]; mouse plasma, 5 µM, 4 h, read-out: fu, fraction unbound): < 0.001; fraction unbound at 4 h, 5 μM ([16]; read-out: plasma protein binding (PPB)): < 0.01; recovery at 4 h, 5 μM ([16]; plasma protein binding assay): 94.1%
C=C(C)[C@H]1Cc2c(ccc3c2O[C@@H]2COc4cc(OC)c(OC)cc4[C@@H]2C3=O)O1 [Rot, Rotenone]										viability at 24 h, 0.1 µM ([17]; galactose): 1%; viability at 24 h, 0.1 µM ([17]; glucose): 64%
Cc1[nH]c(C(=O)Nc2nc3c(CN4CCOCC4)cc(C(=O)O)cc3s2)c(Cl)c1Cl.Cl [compound 14, 4-((6-Carboxy-2-(3,4-dichloro-5-methyl-1H-pyrrole-2-carboxamido)benzo[d]thiazol-4-yl)methyl)morpholin-4-ium Chloride]	13 ± 5	460 ± 120	16	16	> 64	> 64	> 64	64	> 64	
